In assay [1] the test system is caryocytes in femoral marrow. Nature of the assay: Reconstitution of caryocyte numbers in femoral marrow after 4 Gy. It counts as in vivo, mice. The method, then:
The reconstitution of caryocyte numbers and that of hemopoietic progenitors was studied in femoral marrow after irradiation in the dose of 4 Gy and the peptide injection. The test was performed in 12 groups of mice, 6 animals each, and lasted 14 days. Intraperitoneal injections of the peptide in a dose of 10 μg/kg were made 1 day and 2 days before the irradiation.

Assay [2] concerns hemopoietic progenitor cells (CFU-S). As to the kind of experiment: CFU-S content in bone marrow of mice irradiated with 4 Gy. In kind it is in vivo. Conditions: day 8, control 401 ± 48. The method, then: The effect of H-A-D-Trp-Y, where A is D-Glu or D-iGlu and Y is OH or a substituted amide, on protection and reconstitution of the population of hemopoietic progenitor cells in cytopenias of different origin was studied.
Ionising radiation was used to deplete bone marrow. Donor mice were irradiated at a dose of 4 Gy. For each of the two peptides, 10 μg/kg was injected intraperitoneally 1 hour, 1 day or 2 days before the irradiation (groups of 12 mice each). Bone marrow was taken from femoral bones 8 days after the irradiation. Eight days generally marks the beginning of an exponential reconstitution of both the total number of cells and the population of hemopoietic progenitors in the bone marrow, which were depleted as a result of irradiation.
On the 8th day a sharp statistically significant increase was recorded in the hemopoietic progenitor cells count in the bone marrow of the mice irradiated in the dose of 4 Gy who had received the peptide 2 days before the irradiation.

In assay [3] the test system is mixed lymphocyte culture (MLC). Nature of the assay: Mixed lymphocyte culture (MLC) proliferation. It counts as cell-based, mice. Conditions: FIG. 1. The protocol: The influence of the peptides of the invention on the proliferation of a mixed lymphocyte culture (MLC) was studied. The MLC experimental system is an in vitro analogue of the GVHD reaction.
Donor spleen cells from C57B1 mice ([…]) were injected into recipient (CBA×C57B1) F1 mice. Bone marrow was removed from the recipient and cultured for 4 days. The cultured cells were separated into 3 test groups, one group was treated with iDD, one with the L-peptide H-Ile-Glu-Trp-OH and one was a control. Each test peptide was added in various concentrations. Each determination was done in triplicate. ^3H-thymidine was added to each culture for 16 hours and the index of the proliferation of the cells was calculated.

As for H-D-Glu-D-Trp-OH, the Caryocyte count is given as 8,0 ± 0,7 × 10^6 in assay [1] (10 μg/kg IP 1 day before 4 Gy, 4 days after irradiation, 4 Gy alone 9,0 ± 0,3); 16,4 ± 0,7 × 10^6 in assay [1] (10 μg/kg IP 1 day before 4 Gy, 7 days after irradiation, 4 Gy alone 10,6 ± 0,8); 16,0 ± 1,3 × 10^6 in assay [1] (10 μg/kg IP 1 day before 4 Gy, 11 days after irradiation, 4 Gy alone 17,0 ± 0,6); 15,0 ± 0,6 × 10^6 in assay [1] (10 μg/kg IP 1 day before 4 Gy, 14 days after irradiation, 4 Gy alone 17,0 ± 1,2); 8,5 ± 0,5 × 10^6 in assay [1] (10 μg/kg IP 2 days before 4 Gy, 4 days after irradiation, 4 Gy alone 9,0 ± 0,3); 20,0 ± 0,7 × 10^6 in assay [1] (10 μg/kg IP 2 days before 4 Gy, 7 days after irradiation, 4 Gy alone 10,6 ± 0,8). The Caryocyte count in assay [1] (10 μg/kg IP 2 days before 4 Gy, 11 days after irradiation, 4 Gy alone 17,0 ± 0,6) was 23,0 ± 1,9 × 10^6; in assay [1] (10 μg/kg IP 2 days before 4 Gy, 14 days after irradiation, 4 Gy alone 17,0 ± 1,2) it was 24,5 ± 0,9 × 10^6. For the same substance, the “CFU-S count per femur” value in assay [2] (10 μg/kg IP 1 hour before 4 Gy) is 450 ± 95; in assay [2] (10 μg/kg IP 1 day before 4 Gy) it was 780 ± 92; in assay [2] (10 μg/kg IP 2 days before 4 Gy), 955 ± 93.
As to H-Ile-Glu-Trp-OH [reference compound], the “Effect on proliferation of the allogenic lymphocytes (MLC)” value is reported as “negligible inhibition” in assay [3] (0.1 μg/ml) and “stimulates the proliferation” in assay [3] (concentrations 1, 10, 20 μg/ml).

The values above are taken from patent publication US6410515B1, “Peptide, a method for its preparation and a pharmaceutical composition containing the peptide” (Immunotech Developments Inc., priority 1995, dated 2002).
